The supplement of paper PMC10307832

Tests used:
Experiment in all cases: relative viability (nuclei count vs DMSO), 5 days (fraction); higher = more cells survive
RO-3306 + Alpelisib = compound: C1=CC2=C(C=CC(=C2)C=C3C(=O)NC(=NCC4=CC=CS4)S3)N=C1 [RO-3306] + Cc1nc(NC(=O)N2CCC[C@H]2C(N)=O)sc1-c1ccnc(C(C)(C)C(F)(F)F)c1 [Alpelisib] (partner 2 µM)
Summary of the method: (§1)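 The day after seeding in 1536-well plates, lung cancer cell lines were treated by pin tool with a single drug, or with a fixed anchor-drug dose together with five library-drug doses (not always all listed) in √10 steps. After 5 days, a combined fix-and-stain solution (final 0.05% Triton X-100, 1% formaldehyde, 1 ug/ml Hoechst) was added. Nuclei counted on 4× images gave relative viability as treated counts over vehicle counts, reported as the median of duplicate plates.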

RO-3306 + Linsitinib = compound: C1=CC2=C(C=CC(=C2)C=C3C(=O)NC(=NCC4=CC=CS4)S3)N=C1 [RO-3306] + C[C@]1(O)C[C@@H](c2nc(-c3ccc4ccc(-c5ccccc5)nc4c3)c3c(N)nccn32)C1 [Linsitinib] (partner 1 µM)
Summary of the method: as §1

[1] = compound: O=S(=O)(c1ccccc1)N(CC(F)(F)F)c1ccc(C(O)(C(F)(F)F)C(F)(F)F)cc1 + Nc1nc2[nH]cc(CCc3ccc(C(=O)N[C@@H](CCC(=O)O)C(=O)O)cc3)c2c(=O)[nH]1 [Pemetrexed] (partner 0.2 µM)
Summary of the method: as §1

[2] = compound: O=S(=O)(c1ccccc1)N(CC(F)(F)F)c1ccc(C(O)(C(F)(F)F)C(F)(F)F)cc1 + CC(=O)Nc1cccc(-n2c(=O)n(C3CC3)c(=O)c3c(Nc4ccc(I)cc4F)n(C)c(=O)c(C)c32)c1 [Trametinib] (partner 0.02 µM)
Summary of the method: as §1

| Cell Line | relative viability (RO-3306 + Alpelisib; first compound 0.01 µM) | relative viability (RO-3306 + Alpelisib; first compound 0.03162 µM) | relative viability (RO-3306 + Alpelisib; first compound 0.1 µM) | relative viability (RO-3306 + Alpelisib; first compound 0.3162 µM) | relative viability (RO-3306 + Alpelisib; first compound 1 µM) | relative viability (RO-3306 + Linsitinib; first compound 0.01 µM) | relative viability (RO-3306 + Linsitinib; first compound 0.03162 µM) | relative viability (RO-3306 + Linsitinib; first compound 0.1 µM) | relative viability (RO-3306 + Linsitinib; first compound 0.3162 µM) | relative viability (RO-3306 + Linsitinib; first compound 1 µM) | relative viability ([1]; first compound 0.8 µM) | relative viability ([1]; first compound 2.53 µM) | relative viability ([1]; first compound 8 µM) | relative viability ([2]; first compound 0.8 µM) | relative viability ([2]; first compound 2.53 µM) | relative viability ([2]; first compound 8 µM) |
| --- | --- | --- | --- | --- | --- | --- | --- | --- | --- | --- | --- | --- | --- | --- | --- | --- |
| LXF-289 | 1.08 | 1.01 | 1.03 | 1.05 | 1.05 | 1.08 | 0.913 | 0.969 | 0.957 | 0.961 | 0.883 | 0.82 | 0.86 | 0.582 | 0.532 | 0.518 |
| RERF-LC-KJ | 1.01 | 0.708 | 0.706 | 0.836 | 0.768 | 0.956 | 0.831 | 0.902 | 0.974 | 1 | 0.477 | 0.453 | 0.461 | 0.812 | 0.721 | 0.663 |
| NCI-H1793 | 0.686 | 0.577 | 0.739 | 0.59 | 0.565 | 1.1 | 0.624 | 0.931 | 1.05 | 1.01 | 0.792 | 0.587 | 0.806 | 0.33 | 0.295 | 0.29 |
| NCI-H1944 | 0.789 | 0.739 | 0.816 | 0.934 | 0.829 | 1.22 | 1.07 | 1.08 | 1.36 | 1.17 | 0.634 | 0.589 | 0.576 | 0.448 | 0.389 | 0.432 |
| BEN | 1.3 | 0.738 | 0.926 | 1.09 | 1.08 | 1.03 | 0.672 | 0.835 | 0.972 | 0.916 | 0.702 | 0.742 | 0.972 | 1.05 | 0.888 | 1.02 |
| ABC-1 | 1.07 | 1.07 | 1.22 | 0.939 | 1.22 | 0.906 | 0.58 | 0.697 | 0.907 | 0.792 |  |  |  |  |  |  |
| NCI-H1648 |  |  |  |  |  |  |  |  |  |  | 0.718 | 0.574 | 0.535 | 0.628 | 0.369 | 0.44 |
| NCI-H522 |  |  |  |  |  |  |  |  |  |  | 1.03 | 1.11 | 0.877 | 0.607 | 0.781 | 0.689 |
| EBC-1 | 0.895 | 0.727 | 1.04 | 0.965 | 0.904 | 1.03 | 0.556 | 0.977 | 1.15 | 1.05 |  |  |  |  |  |  |
| A549 | 0.744 |  | 0.72 | 0.756 | 0.715 | 0.762 | 0.305 | 0.622 | 0.69 | 0.623 |  |  |  |  |  |  |
| NCI-H1703 | 0.467 | 0.324 | 0.342 | 0.262 | 0.307 | 1.04 | 0.409 | 0.598 | 0.22 | 0.681 |  |  |  |  |  |  |
| IA-LM | 0.895 | 0.56 | 0.725 | 0.708 | 0.948 | 0.559 |  | 0.56 | 0.571 | 0.809 |  |  |  |  |  |  |
| NCI-H1563 | 0.992 | 0.906 | 0.823 | 1 | 0.898 | 1.08 | 1.14 | 1.3 | 1.18 | 1.16 | 0.737 | 0.749 | 0.75 |  |  |  |
| NCI-H727 | 0.622 | 0.531 | 0.517 | 0.716 | 0.786 | 0.464 | 0.221 | 0.28 | 0.277 | 0.35 |  |  |  | 0.358 | 0.368 | 0.375 |
